Laboratory results as given in patent US20250032525A1 (priority 2021, published 2025).
Like-named read-outs stand apart in the source and are kept apart here.

Tests used:
[1] = tested on: DU-145; details: DU-145, NCI-60 database, sulforhodamine B; read-out: Cytotoxic IC50; cited from earlier work
[2] = tested on: MCF7; details: MCF7, NCI-60 database, sulforhodamine B; read-out: Cytotoxic IC50; cited from earlier work
[3] = tested on: SK-MEL-2; details: SK-MEL-2, NCI-60 database, sulforhodamine B; read-out: Cytotoxic IC50; cited from earlier work
[4] = tested on: CAKI-1; details: CAKI-1, NCI-60 database, sulforhodamine B; read-out: Cytotoxic IC50; cited from earlier work
[5] = tested on: NCI-H226; details: NCI-H226, NCI-60 database, sulforhodamine B; read-out: Cytotoxic IC50; cited from earlier work
[6] = tested on: BT-549; assay: In vitro cytotoxicity (PrestoBlue); details: Homo sapiens
Method: (§2) Cells were seeded in 40 μl medium on 384 well plates by an automatic liquid handling machine (Hamilton StarLet) in a density of 2500 cells/well. Adherent cells were cultured for 24 h before the addition of the compounds, while drugs were added to non-adherent cells 2 h after cell seeding. The drugs were serially diluted, and dispensed in an additional 20 μl. Cells were incubated for an additional 72 h, cytotoxicity was assessed by the PrestoBlue viability reagent (Thermo Fisher). Experiments were repeated at least 3 times.

[7] = tested on: HCC-2998; details: HCC-2998, NCI-60 database, sulforhodamine B; read-out: Cytotoxic IC50; cited from earlier work
[8] = tested on: OVCAR-5; details: OVCAR-5, NCI-60 database, sulforhodamine B; read-out: Cytotoxic IC50; cited from earlier work
[9] = tested on: COLO 205; details: COLO 205, NCI-60 database, sulforhodamine B; read-out: Cytotoxic IC50; cited from earlier work
[10] = tested on: T-47D; details: NCI-60 database, sulforhodamine B, read-out: Cytotoxic IC50; cited from earlier work
[11] = tested on: PC-3; details: PC-3, NCI-60 database, sulforhodamine B; read-out: Cytotoxic IC50; cited from earlier work
[12] = tested on: OVCAR-3; details: OVCAR-3, NCI-60 database, sulforhodamine B; read-out: Cytotoxic IC50; cited from earlier work
[13] = tested on: BT-549; details: BT-549, NCI-60 database, sulforhodamine B; read-out: Cytotoxic IC50; cited from earlier work
[14] = tested on: 4T1-LUC mammary tumor; assay: Mouse 4T1 breast cancer model; type: in vivo, BALB/c mice; details: 1 mg/kg LiPyDau, 5 mg/kg DOX, day 12 and 24; endpoint day 33
Method: Mouse melanoma (B16), lung (Lewis lung carcinoma, LLC) and breast (4T1-LUC) cancer cell lines were used to establish allograft tumors for drug testing. 5×10^5 B16 or 2×10^5 LLC cells were inoculated subcutaneously in 200 μl serum-free culture media. 4T1-LUC tumors were established by injecting 1×10^6 cells in 20 μl serum-free culture media through the nipple directly to the breast tissue of 8 weeks old BALB/c mice on day 0). […] For the B16, LLC and 4T1-LUC tumor models 4, 6 and 6 mice were treated with LiPyDau while 4, 3 and 6 animals were in the saline treated groups, respectively.
Growth of 4T1-LUC tumor was monitored by bioluminescence imaging. Images were taken 10 minutes after tail vein injection of 150 mg/kg dose of D-luciferin into the mouse.

[15] = tested on: KM12; details: KM12, NCI-60 database, sulforhodamine B; read-out: Cytotoxic IC50; cited from earlier work
[16] = tested on: patient-derived lung adenocarcinoma xenografts; assay: Patient-derived xenograft (PDX) model; type: in vivo, NSG mice; details: single treatment; LiPyDau 0.5 mg/kg, DOX 2 mg/kg, paclitaxel 12 mg/kg; 7 days
Excerpt: A piece from the tumor tissue was transplanted subcutaneously into the right flank and propagated in NOD.Cg-Prkdc^scid Il2rg^tm1Wjl/SzJ (NSG) mice for 7 months. After the xenografted tumor reached 1000 mm^3, tumor pieces were retransplanted subcutaneously into the right flank of 20 additional NSG mice, which were given a single treatment with various chemotherapeutics or LiPyDau. Every treatment group consists of 5 animals. After daily monitoring of the tumor volume for one week, the mice were sacrificed and the cytotoxicity of the treatments was investigated on tissue slices by image analysis.
For treatment, tumor pieces were engrafted subcutaneously.

[17] = tested on: MES-SA; assay: In vitro cytotoxicity; type: cell-based; details: Homo sapiens
Excerpt: (§1) Experiments were repeated at least 3 times.

[18] = tested on: MES-SA/Dx5; assay: In vitro cytotoxicity; type: cell-based; details: Homo sapiens
Excerpt: as §1

[19] = tested on: T-47D; assay: In vitro cytotoxicity (PrestoBlue); details: Homo sapiens, T47D
Method: as §2

[20] = tested on: MALME-3M; details: NCI-60 database, sulforhodamine B, read-out: Cytotoxic IC50; cited from earlier work
[21] = tested on: MDA-MB-231; details: MDA-MB-231, NCI-60 database, sulforhodamine B; read-out: Cytotoxic IC50; cited from earlier work
[22] = tested on: HOP-62; details: HOP-62, NCI-60 database, sulforhodamine B; read-out: Cytotoxic IC50; cited from earlier work
[23] = tested on: HS 578T; assay: In vitro cytotoxicity (PrestoBlue); details: Homo sapiens
Method: as §2

[24] = tested on: MDA-MB-231; assay: In vitro cytotoxicity (PrestoBlue); details: Homo sapiens, MDA-MB-231, 72 h, read-out: Cytotoxic IC50
Method: as §2

[25] = tested on: HCT-116; assay: In vitro cytotoxicity (PrestoBlue); type: cell-based; details: Homo sapiens, HCT-116, 72 h; read-out: Cytotoxic IC50
Excerpt: as §1

[26] = tested on: DU-145; assay: In vitro cytotoxicity (PrestoBlue); type: cell-based; details: Homo sapiens, DU-145, 72 h; read-out: Cytotoxic IC50
Excerpt: as §1

[27] = tested on: KM12; assay: In vitro cytotoxicity (PrestoBlue); type: cell-based; details: Homo sapiens, KM12, 72 h; read-out: Cytotoxic IC50
Excerpt: as §1

[28] = tested on: SK-MEL-2; assay: In vitro cytotoxicity (PrestoBlue); type: cell-based; details: Homo sapiens, SK-MEL-2, 72 h; read-out: Cytotoxic IC50
Excerpt: as §1

[29] = tested on: UO-31; assay: In vitro cytotoxicity (PrestoBlue); type: cell-based; details: Homo sapiens, UO-31, 72 h; read-out: Cytotoxic IC50
Excerpt: as §1

COc1cccc2c1C(=O)c1c(O)c3c(c(O)c1C2=O)C[C@@](O)(C(=O)CO)C[C@@H]3O[C@H]1C[C@H](N)[C@H](O)[C@H](C)O1 [DOX, doxorubicin]
IC50 [1]: 100 nM
IC50 [2]: 15.6 nM
IC50 [3]: 237 nM
IC50 [4]: 190 nM
IC50 [5]: 52.4 nM
IC50 ([6]; BT-549): 20 nM
IC50 [7]: 181 nM
IC50 [8]: 588 nM
IC50 [9]: 158 nM
IC50 [10]: 83 nM
IC50 [11]: 246 nM
IC50 [12]: 335 nM
IC50 [13]: 212 nM
Tumor growth / tumor cell viability [14]: small but significant effect on the growth of tumors
IC50 [15]: 223 nM
Tumor growth [16]: failed to exert any effect on tumor growth
IC50 ([17]; presence of 1 μM tariquidar, read-out: IC50 + TQ): 20 nM
IC50 ([17]; read-out: IC50): 72 nM
IC50 ([18]; MES-SA/Dx5, read-out: IC50): 2880 nM
IC50 ([18]; MES-SA/Dx5, presence of 1 μM tariquidar, read-out: IC50 + TQ): 20 nM
IC50 [19]: 30 nM
IC50 [20]: 51.9 nM
IC50 [21]: 383 nM
IC50 [22]: 60.4 nM
IC50 [23]: 80 nM

COc1cccc2c1C(=O)c1c(O)c3c(c(O)c1C2=O)C[C@@](O)(C(C)=O)C[C@@H]3O[C@H]1C[C@H]2[C@H](OC3CCCN32)[C@H](C)O1 (stereo partly drawn) [PyDau, 2-deamino-2-pyrrolino-daunorubicin]
IC50 [24]: 1.09 nM
IC50 ([6]; BT-549, 72 h, read-out: Cytotoxic IC50): 4.68 nM
IC50 [25]: 3 nM
IC50 [26]: 1.31 nM
IC50 [27]: 1.42 nM
IC50 [28]: 3.55 nM
IC50 [29]: 1.43 nM
IC50 [17]: 1.35 nM
IC50 ([18]; MES-SA/Dx5): 2.51 nM
IC50 ([19]; 72 h, read-out: Cytotoxic IC50): 4.25 nM
IC50 ([23]; 72 h, read-out: Cytotoxic IC50): 1.77 nM
